Results as given in patent publication US20170021056A1, “PEPTIDE AMPHIPHILE BIOMATERIALS FOR NERVE REPAIR” (Northwestern University, priority 2015, published 2017).
The star is where a group is joined. Palmitoyl = CCCCCCCCCCCCCCCC(=O)*

Legend:
[1] = system: Schwann cells (cell line RT4-D6P2T); assay: WST-1 proliferation assay of Schwann cells in PA or collagen gels; type: cell-based, rat; details: for Schwann cell proliferation compared to backbone-PA gel: by 7 days of culture; for Schwann cell proliferation (viability measurements) compared to backbone-PA gel: day 1 of culture
Description: (§1) Cells were purchased from ATCC (cell line RT4-D6P2T) and cultured in Dulbecco's Modified Eagle's Medium (DMEM) with 10% fetal bovine serum (FBS). Cells were cultured to confluence, treated with 0.25% trypsin, centrifuged, and resuspended in PBS for a final concentration of 3500 cells/ml for WST-1 proliferation assays and 10,000 cells/ml for immunocytochemistry (ICC).
In order to synthesize the backbone-PA (consisting of only palmitoyl-VVAAEENH2) (SEQ ID NO: 3), the molecule was dissolved in aqueous 150 mM NaCl, 3 mM KCl, and NaOH solution to obtain a final 1 wt % solution at a pH between 7.2 and 7.4. In order to fabricate mixtures containing epitope-bearing PAs IKVAV (SEQ ID NO: 2) and RGDS (SEQ ID NO: 1) (consisting of palmitoyl-VVAAEE-NH2(SEQ ID NO: 3) with appended peptides, either RGDS (Arg-Gly-Asp-Ser) (SEQ ID NO: 1) or IKVAV (Ile-Lys-Val-Ala-Val) (SEQ ID NO: 2)), the backbone-PA was dissolved in aqueous 150 mM NaCl, 3 mM KCl, and NaOH solution to obtain a 1.33 wt % solution at a pH between 7.2 and 7.4. The epitope-containing PA was then dissolved with the same solution to obtain a 1 wt % solution at a pH between 7.2 and 7.4. The 1.33 wt % PA solution was then mixed in a 3:1 ratio with the 1% bioactive epitope solution creating a final bioactive PA solution of 1 wt % PA and 0.25 wt % bioactive epitope. The three resulting solutions (backbone-PA, RGDS-PA (SEQ ID NO: 1), and IKVAV-PA (SEQ ID NO: 2)) were then heated to 80° C. for 30 min in a water bath and left in the bath for slowcooling to 37° C. overnight (refs. 10,11; herein incorporated by reference in their entireties).
(§2) Following completion of the slow cooling, each of the PA solutions was mixed with Schwann cell suspension in a 4:1 ratio. A final cell density of 3500 cells/ml was used for the WST-1 proliferation assays and 10,000 cells/ml for immunocytochemistry studies.
(§3) A […] volume of gelling solution consisting of 20 mM CaCl2, 150 mM NaCl, and 3 mM KCl was pipetted onto a glass slide to form a thin film. The PA-Schwann cell suspensions were then pipetted in […] aliquots onto the thin film, instantly forming a string-like gel, with cells encapsulated within. These cell-embedded gels were maintained free floating in DMEM with 10% FBS in culture plates and incubated at 37° C. Medium was changed every 72 h.
(§4) Volumetric ratios of 1 ml HEPES, 10 ml 10XPBS, 87 ml Collagen 10 mg/mL, and 2 ml Schwann cell PBS suspension were combined and mixed gently. Final cell density of 3500 cells/ml was used for the WST-1 proliferation assays and 10,000 cells/ml, for immunocytochemistry studies. The mixture was then pipetted into a culture well (either a 96-well plate or 2-welled microscopy slides), and after 1 h of curing and solidification at 37° C., medium was added gently to the wells and changed every 3 days.
To evaluate the viability of cells within the gels, WST-1 reagent (Roche Applied Science, Indianapolis, Ind., USA) was used for each PA-cell and collagen gelecell complex. WST-1 assay has been widely used to measure cell proliferation. Aligned PA-cell gels along with collagen-cell gels were fabricated through the aforementioned methods at a final cell density of 3500 cells/ml. Gels were then cultured in 96-well plates for various time periods (days 1, 7, 14, and 21). Following each time point, gels were incubated for 90 min in medium containing 10% WST-1 assay reagent. Following incubation, […] of the conditioned medium were then transferred to a 96-well reading plate, and absorption values were read in a spectrophotometer at 450 nm. Measurements were repeated in sets of four.

[2] = system: Schwann cells (cell line RT4-D6P2T); assay: Immunocytochemistry of actin and vinculin (focal adhesion protein) of Schwann cells in gels; type: cell-based, rat; details: 48 h culture
Description: as §1, §2, §3, §4
PA-cell gels along with collagen-cell gels were fabricated through the aforementioned methods at a final cell density of 10,000 cells/ml. […] Specimens were then viewed with confocal microscopy (Confocal SP1 MP-Inverted, Leica Microsystems Inc., Buffalo Grove, Ill.) using oil magnification, and images were recorded.

Row | Substance | Schwann cell proliferation compared to backbone-PA gel [1] | Schwann cell proliferation (viability measurements) compared to backbone-PA gel [1] | day at which Schwann cell growth was maximal ([1]; no significant expansion or contraction at day 21) [days] | actin appearance, RGDS-PA compared with IKVAV-PA gels [2] | time over which Schwann cell proliferation was statistically increased vs. backbone-PA ([1]; p<0.05, ANOVA and Tukey-Kramer) [days] | Schwann cell proliferation, rank among all groups ([1]; through 21 days of culture) | Schwann cell proliferation with time in gel ([1]; days 1, 7, 14, 21) | spatial arrangement of cytoskeletal actin of Schwann cells (actin stain) [2]
1 | IKVAV-PA: palmitoyl-VVAAEE-NH2 with appended IKVAV (Ile-Lys-Val-Ala-Val), mixed with backbone-PA: 1 wt % PA and 0.25 wt % bioactive epitope | significantly higher | proliferated more rapidly | 14 | no significant difference | – | – | – | –
2 | RGDS-PA: palmitoyl-VVAAEE-NH2 with appended RGDS (Arg-Gly-Asp-Ser), mixed with backbone-PA: 1 wt % PA and 0.25 wt % bioactive epitope | significantly higher | proliferated more rapidly | – | no significant difference | ≤ 21 | highest among all groups | – | –
3 | palmitoyl-VVAAEENH2 (Palmitoyl-VVAAEE-NH2) [backbone-PA] | – | – | – | – | – | – | increasing proliferation with time | marked linear arrangement
